Reference: ChEMBL document CHEMBL6087424, “Opportunities and Challenges of Arginase Inhibitors in Cancer: A Medicinal Chemistry Perspective” (J Med Chem, 2024)

Key:
Arginase-1 [1] = target: T1, Arginase-1 (Homo sapiens, UniProt P05089); assay: Binding affinity to human recombinant ARG1 assessed as inhibition constant
T1 sequence (P05089 whole entry): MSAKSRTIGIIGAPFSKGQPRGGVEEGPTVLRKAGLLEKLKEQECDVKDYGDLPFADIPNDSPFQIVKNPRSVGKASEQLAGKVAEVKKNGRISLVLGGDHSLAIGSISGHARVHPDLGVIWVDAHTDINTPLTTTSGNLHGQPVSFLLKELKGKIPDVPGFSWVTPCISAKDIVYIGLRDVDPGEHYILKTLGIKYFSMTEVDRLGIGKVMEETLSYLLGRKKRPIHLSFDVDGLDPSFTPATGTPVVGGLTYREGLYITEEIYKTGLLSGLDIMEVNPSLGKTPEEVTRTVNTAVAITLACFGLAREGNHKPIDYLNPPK

Arginase-1 [2] = target: T1, Arginase-1; assay: Inhibition of ARG1 (unknown origin)
Arginase-1 [3] = target: T1, Arginase-1; assay: Inhibition of N-terminal hexa-histidine full-length human ARG1 extracted from Escherichia coli BL21 (DE3) Rosetta competent cells
[4] = target: T2, Arginase-2, mitochondrial (Homo sapiens, UniProt P78540); assay: Inhibition of human recombinant ARG2
T2 sequence (P78540 whole entry): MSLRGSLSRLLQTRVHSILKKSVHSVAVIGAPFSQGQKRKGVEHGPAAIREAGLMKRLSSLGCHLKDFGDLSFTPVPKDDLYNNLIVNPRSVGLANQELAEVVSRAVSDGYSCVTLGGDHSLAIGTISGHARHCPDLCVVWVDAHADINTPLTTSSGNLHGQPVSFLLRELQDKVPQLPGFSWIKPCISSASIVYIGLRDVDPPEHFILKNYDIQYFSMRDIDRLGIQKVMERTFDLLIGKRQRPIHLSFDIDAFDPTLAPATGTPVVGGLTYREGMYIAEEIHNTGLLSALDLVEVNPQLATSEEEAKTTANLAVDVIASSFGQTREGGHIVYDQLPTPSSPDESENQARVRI

[5] = target: T2, Arginase-2, mitochondrial; assay: Inhibition of human recombinant ARG2 extracted from Escherichia coli
[6] = target: T2, Arginase-2, mitochondrial; assay: Inhibition of ARG2 (unknown origin)

## N[C@@H](CCCCC=O)C(=O)O
Arginase-1 [1]
  Ki: 60000 nM

## CN[C@@H]1C[C@@H]2C[C@@](N)(C(=O)O)[C@@H](CCCB(O)O)[C@@H]2[C@H]1F
Arginase-1 [2]
  IC50: 6.9 nM

## CC(C)(C)[C@H](N)C(=O)N[C@H]1CN[C@H](C(=O)O)[C@@H]1CCCB(O)O
Arginase-1 [3]
  IC50: < 1 nM

## N[C@@H](CC/C=C/B(O)O)C(=O)O
[4]
  IC50: 15000 nM

## CN(C)C[C@@H]1CC[C@@H](CCB(O)O)C[C@]1(N)C(=O)O
[5]
  IC50: 39 nM

## O=C(O)[C@@]1(CCCCB(O)O)CCCN1
[6]
  IC50: 23 nM
Arginase-1 [2]
  IC50: 14.7 nM

## N[C@@](CCCCB(O)O)(C(=O)O)C1CC(NCCCc2ccccc2)C1 (stereo partly drawn)
[6]
  IC50: 26 nM
